The source of these data is US6569633B1, “Modulation of the sulfonylurea receptor and calcium in adipocytes for treatment of obesity/diabetes” (Artecel Science, Inc., priority 1998, dated 2003).

Format in all cases: cell-based
Experiment [1] has as its system human adipocytes. The experiment in a line: Triglyceride accumulation in human adipocytes. The following applies: control 28.2±4.5. The protocol: Human subcutaneous abdominal adipocytes were isolated from healthy patients undergoing cosmetic liposuction using methodology we have previously described. Briefly, the tissue was washed several times with Hank's Balanced Salt Solution, minced into small fragments and digested with type I collagenase (1 mg/mL) in a shaking water bath at 37° C. for 30-40 minutes. Cells were then filtered through a sterile nylon filter (500 μm mesh) and cultured in Dulbecco's Modified Eagle's Medium (DMEM) supplemented with 1% fetal bovine serum, 1% bovine serum albumin, 100 U/mL penicillin, 100 μg/mL streptomycin and 50 μg/mL gentamicin. Cells were subsequently cultured in suspension in sterile polypropylene flasks in a humidified 37° C./5% CO2 incubator. After one day, suspended (floating) adipocytes were transferred to fresh medium and maintained as a thin layer at the top of the culture medium to ensure access to nutrients. The cells were maintained for another 24 hours in this medium and then changed to fresh medium with the addition of SUR agonists (such as glibenclamide) for up to 48 hours with the compounds to be tested. Medium was changed every 24 hours, and cell viability was verified with trypan blue exclusion at the end of representative experiments.
Stimulation of fatty acid synthase and concomitant inhibition of lipolysis results in increased lipid accumulation in human adipocytes. Adipocytes were treated as described above, harvested, and their triglyceride content was analyzed and normalized for protein content. […] Thus, these calcium-stimulated biochemical activities will contribute to the development of adipocyte hypertrophy and potentially obesity.

Experiment [2] has as its system GPDH activity in human adipocytes. Nature of the experiment: GPDH activity in human adipocytes. The protocol:
FIG. 3. The lipogenic effect of glibenclamide in human adipocytes. As an indicator of lipogenic stimulation, both FAS and GPDH activity were measured. A. Glibenclamide stimulation of FAS activity. Human adipocytes were treated with 10 μM glibenclamide alone, 10 μM glibenclamide plus 10 μM diazoxide or 10 μM glibenclamide plus 30 μM nitrendipine for 48 hr. FAS was measured as described (6, 14). *p<0.001 vs. Control. B. Glibenclamide stimulation of GPDH activity. Human adipocytes were treated with 10 μM glibenclamide or 10 μM glibenclamide plus 10 μM diazoxide for 48 hr. GPDH activity was measured as described (14). *p<0.01 vs. Control.
To study the role of adipocyte SUR1 in regulating lipogenesis, we treated human adipocyte with SUR1 agonist and antagonist using FAS and GPDH activities as lipogenic markers. Human adipocytes were incubated in 24-well plates with the treatments indicated for 48 hr. FAS and GPDH activities were determined spectrophotometrically in crude cytosolic extracts of human adipocytes by measuring the oxidation rate of NADPH or NADH respectively, as previously described (14). The protein correction was measured by a modified Bradford method using Coomassie Blue dye (Pierce, Rockford, Ill.).

The test system of experiment [3] is human adipocytes. Nature of the experiment: Lipolysis (glycerol release into the culture medium) in human adipocytes. How it is done:
FIG. 4. The anti-lipolytic effect of glibenclamide in human adipocytes. Activation of lipolysis in adipocytes is typically measured by release of glycerol into the media. Human adipocytes were treated with 10 μM glibenclamide alone, 10 μM glibenclamide plus 10 μM diazoxide or 10 μM glibenclamide plus 30 μM nitrendipine for 48 hr. Glycerol release was determined as described (19). *p<0.01 vs. Control.
Human adipocytes were examined for changes in lipolysis regulation by measurement of glycerol release into the media. Glycerol was measured by using a standard method (19), although other techniques for measuring glycerol would be equally useful.
Human subcutaneous abdominal adipose tissue was obtained from patients undergoing elective abdominal cosmetic surgery, although other types of adipose tissue, such as mesenteric, retroperitoneal, perirenal, or omental may be useful in identifying these compounds. Preadipocytes are isolated by collagenase treatment of the tissue and cultured adipocytes prepared as described (patent filed; Jan. 29, 1999; Ser. No. 09/240,029). Agents that regulate calcium flux in adipocytes as noted above can mediate lipolysis. Human adipocytes may be cultured in multi-well plates with different treatments between 1 hour or 24 hours as indicated, and glycerol release into the culture medium was determined as an indicator for lipolysis using a one-step enzymatic fluorometric method. The media collected from 1 hr treatments were used directly for glycerol measurements. For 24 hr treatments, media were removed, and cells were washed with Hank's Balanced Salt Solution and incubated in fresh medium for a further 10-60 min. This media were then used for glycerol measurements for 24 hr treatments.
We next investigated the role of adipocyte SUR1 on lipolysis. Lipolysis was measured as follows. Human adipocytes were treated as described below and glycerol release into the culture medium was determined as an indicator for lipolysis using a one step enzymatic fluorometric method (19). After treatment medium was obtained, HClO4 was added for deproteinization.
Agents that regulate calcium flux in adipocytes as noted above can mediate lipolysis. Human adipocytes (1 mL cells/well) were incubated in 24-well plates with different treatments for either 1 hour or 24 hours as indicated, and glycerol release into the culture medium was determined as an indicator for lipolysis using a one-step enzymatic fluorometric method. The media collected from 1 hr treatments were used directly for glycerol measurements. For 24 hr treatments, media were removed, and cells were washed with Hank's Balanced Salt Solution and incubated in fresh medium for a further 30 min. This media were then used for glycerol measurements for 24 hr treatments. After medium was collected, HClO4 was added to give a final concentration of 3% for deproteinization. The sample was centrifuged at 9000×g for 20 min. The supernatant was then collected and neutralized with 10N NaOH. Samples were stored at −80° C. prior to glycerol assay. Cells were collected, homogenized and stored at −80° C. for subsequent total protein correction by a modified Bradford method using Coomassie Blue dye (PIERCE, Rockford, Ill.).

Setting [4] is: SUR agonists such as glibenclamide, general description.

By inhibition is commonly meant the change of the read-out against control, counted positive when it falls. Turning to `COc1ccc(Cl)cc1C(=O)NCCc1ccc(S(=O)(=O)NC(=O)NC2CCCCC2)cc1` [glibenclamide], the triglyceride accumulation in experiment [1] (2 μM glibenclamide (dose-responsive series)) stood at 46.1±6.3 μg/mg protein; in experiment [1] (10 μM glibenclamide (dose-responsive series)), 58.0±3.4 μg/mg protein. The “increase in GPDH activity” value in experiment [2] (10 μM glibenclamide, 48 hr) was 48%. This compound also displayed a GPDH activity in experiment [2] (10 μM glibenclamide, 48 hr, control 554.0±33.0) of 821.0±73.4 NADH nM/min/mg protein. In addition, in experiment [2] (setting [4]), the “increased GPDH activity” value is given as 50-100%. In addition, in experiment [3] (10 μM glibenclamide, 48 hr, control 0.193±0.050), the “lipolysis (glycerol release)” value is on record as 0.061±0.009 NADH μM/mg protein. This compound also gave an inhibition at 10 µM in experiment [3] (Homo sapiens, Adipocyte, 10 μM glibenclamide, 48 hr) of 68%. Besides, in experiment [3] (setting [4]), the inhibition in lipolysis is 25-70%.
